Data taken from PubChem BioAssay AID977614 (Broad Institute, 2014).
Active and inactive are the calls of the source.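 Rule for the calls: active = parasite count per well reduced by over 3 SD from the mean, with host cell number above 80% of untreated; inactive = the rest.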

System: L. donovani amastigotes in THP-1 macrophages, DAPI imaging, 72 h
Assay: antileishmanial activity in infected macrophages – imaging, THP-1 host macrophages, single concentration (AID 977614);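 note: signal is the parasite per host cell ratio from DAPI stained kinetoplasts and nuclei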

| SMILES | AC50 |
| --- | --- |
| CN(C)CC(=O)N1[C@@H](CO)[C@@H]2c3ccccc3N(C(=O)Cc3ccccc3)C[C@@H]21 | > 10 µM (inactive) |
| O=S(=O)(c1ccccc1)N1[C@H](CO)[C@H]2c3ccccc3NC[C@H]21 | > 10 µM (inactive) |
| COc1ccc(CN2[C@H](CO)[C@H]3c4ccccc4NC[C@H]32)cc1 | > 10 µM (inactive) |
| CCCNC[C@H]1[C@@H](c2ccc(C3=CCCCC3)cc2)[C@@H](CO)N1C(=O)C1CCC1 | > 10 µM (inactive) |
| O=C(NC[C@H]1[C@H](c2ccccc2)[C@@H](CO)N1Cc1cccnc1)c1ccccn1 | > 10 µM (inactive) |
| Cc1noc(C)c1NC(=O)N(C)C[C@@H]1OCc2cn(nn2)CCCC(=O)N([C@H](C)CO)C[C@@H]1C | > 10 µM (inactive) |
| O=C(Cc1ccccn1)N1[C@H](CO)[C@H]2c3ccccc3NC[C@H]21 | > 10 µM (inactive) |
| C[C@H](CO)N1C[C@H](C)[C@H](CN(C)C(=O)Nc2ccnc(N3CCOCC3)c2)OCc2cnnn2CCCC1=O | > 10 µM (inactive) |
| O=C(Cc1ccccc1)NC[C@H]1N[C@H](CO)[C@@H]1c1ccc(C2=CCCC2)cc1 | > 10 µM (inactive) |
| CCCNC[C@@H]1[C@@H](c2ccc(C3=CCCCC3)cc2)[C@@H](CO)N1C(=O)C1CCC1 | > 10 µM (inactive) |
| C[C@H](CO)N1C[C@H](C)[C@H](CN(C)S(=O)(=O)c2cccc(C#N)c2)OCc2cn(nn2)CCCC1=O | > 10 µM (inactive) |
| CNC[C@@H]1OCc2cn(nn2)CCCC(=O)N([C@H](C)CO)C[C@H]1C | > 10 µM (inactive) |
| CCN(C[C@@H]1[C@@H](c2ccccc2)[C@@H](CO)N1CC1CC1)C(=O)c1ccccn1 | > 10 µM (inactive) |
| O=C(NC[C@H]1N[C@@H](CO)[C@H]1c1ccc(-c2ccccc2F)cc1)c1ccccn1 | > 10 µM (inactive) |
| CNC[C@H]1OCc2cn(nn2)CCCC(=O)N([C@H](C)CO)C[C@H]1C | > 10 µM (inactive) |
| CN(C[C@@H]1N[C@H](CO)[C@@H]1c1ccc(C#CCC2CCCC2)cc1)S(C)(=O)=O | > 10 µM (inactive) |
| C[C@@H]1CN([C@@H](C)CO)C(=O)CCCn2nncc2CO[C@@H]1CN(C)Cc1cccc(C(F)(F)F)c1 | > 10 µM (inactive) |
| C[C@H](CO)N1C[C@H](C)[C@H](CN(C)C(=O)Nc2ccc(-c3cccs3)cc2)OCc2cnnn2CCCC1=O | > 10 µM (inactive) |
| C/C=C/c1ccc([C@@H]2[C@@H](CN(C)C(=O)CC3CC3)N(C(=O)C3CC3)[C@H]2CO)cc1 | > 10 µM (inactive) |
| C[C@@H]1CN([C@@H](C)CO)C(=O)CCCn2nncc2CO[C@@H]1CN(C)S(=O)(=O)c1ccc(Oc2ccccc2)nc1 | > 10 µM (inactive) |
| O=C(C1CCC1)N1C[C@H]2[C@@H](c3ccccc31)[C@@H](CO)N2C(=O)Nc1cccc(F)c1 | > 10 µM (inactive) |
| Cc1noc(C)c1NC(=O)N(C)C[C@H]1OCc2cnnn2CCCC(=O)N([C@@H](C)CO)C[C@H]1C | > 10 µM (inactive) |
| O=C(Cc1cccnc1)N1[C@H](CO)[C@H](c2ccccc2)[C@H]1CNCC1CCC1 | > 10 µM (inactive) |
| CCC(=O)N1[C@@H](CO)[C@@H](c2ccccc2)[C@@H]1CN(CC)C(=O)c1cccc(F)c1 | > 10 µM (inactive) |
| CCN(C[C@@H]1[C@@H](c2ccccc2)[C@H](CO)N1S(C)(=O)=O)C(=O)C1CCCC1 | > 10 µM (inactive) |
| CCC(=O)NC[C@@H]1[C@@H](c2ccc(-c3cccc(F)c3)cc2)[C@@H](CO)N1CC1CC1 | > 10 µM (inactive) |

| SMILES | AC50 |
| --- | --- |
| COc1ccc(C(=O)N2C[C@@H]3[C@H](c4ccccc42)[C@H](CO)N3Cc2ccccc2Cl)cc1 | > 10 µM (inactive) |
| COc1ccccc1S(=O)(=O)N(C)C[C@H]1OCc2cn(nn2)CCCC(=O)N([C@H](C)CO)C[C@H]1C | > 10 µM (inactive) |
| C/C=C/c1ccc([C@H]2[C@@H](CO)N(c3nc(C)c(C)s3)[C@@H]2CNCC(C)C)cc1 | > 10 µM (inactive) |
| Cc1ccc(S(=O)(=O)N2C[C@H]3[C@@H](c4ccccc42)[C@@H](CO)N3Cc2cccnc2)cc1 | > 10 µM (inactive) |
| C[C@H]1CN([C@@H](C)CO)C(=O)CCCn2nncc2CO[C@H]1CN(C)S(=O)(=O)c1cn(C)cn1 | > 10 µM (inactive) |
| CNC[C@H]1OCc2cnnn2CCCC(=O)N([C@@H](C)CO)C[C@H]1C | > 10 µM (inactive) |
| O=C(c1ccncc1)N1C[C@H]2[C@@H](c3ccccc31)[C@@H](CO)N2C(=O)CN1CCOCC1 | > 10 µM (inactive) |
| O=C(c1ccccc1F)N1C[C@H]2[C@@H](c3ccccc31)[C@H](CO)N2C(=O)Nc1ccccc1 | > 10 µM (inactive) |
| C[C@H](CO)N1C[C@H](C)[C@H](CN(C)C(=O)c2ccc(N3CCN(C)CC3)cc2)OCc2cn(nn2)CCCC1=O | > 10 µM (inactive) |
| C[C@H](CO)N1C[C@H](C)[C@H](CN(C)S(=O)(=O)c2cn(C)cn2)OCc2cnnn2CCCC1=O | > 10 µM (inactive) |
| O=C(NC[C@H]1[C@H](c2ccccc2)[C@@H](CO)N1C(=O)C1CCC1)NC1CCCC1 | > 10 µM (inactive) |
| COc1ccccc1-c1ccc([C@H]2[C@@H](CO)N[C@@H]2CNC(=O)C2CC2)cc1 | > 10 µM (inactive) |
| C/C=C/c1ccc([C@H]2[C@@H](CO)N(C(C)=O)[C@H]2CN(C(C)=O)C2CCCC2)cc1 | > 10 µM (inactive) |
| COc1ccc(NC(=O)N(C)C[C@@H]2OCc3cnnn3CCCC(=O)N([C@@H](C)CO)C[C@@H]2C)c(OC)c1 | > 10 µM (inactive) |
| CCN(C[C@H]1[C@@H](c2ccccc2)[C@H](CO)N1CC1CC1)C(=O)c1ccccn1 | > 10 µM (inactive) |
| CC(=O)N1[C@H](CO)[C@@H](c2ccccc2)[C@H]1CN(CC(C)C)C(=O)c1ccccn1 | > 10 µM (inactive) |
| O=C(CC1CC1)N1[C@@H]2CN(S(=O)(=O)c3ccccc3F)c3ccccc3[C@@H]2[C@@H]1CO | > 10 µM (inactive) |
| O=C(Nc1ccccc1Cl)N1C[C@@H]2[C@H](c3ccccc31)[C@@H](CO)N2Cc1ccncc1 | > 10 µM (inactive) |
| CC(=O)N1[C@H](CN(CC(C)C)C(=O)c2ccccn2)[C@H](c2ccccc2)[C@@H]1CO | > 10 µM (inactive) |
| CCN(C[C@@H]1[C@@H](c2ccccc2)[C@@H](CO)N1C(C)=O)C(=O)NC1CCCC1 | > 10 µM (inactive) |
| O=C(CC(F)(F)F)N1C[C@@H]2[C@H](c3ccccc31)[C@@H](CO)N2C(=O)C1CCCCC1 | > 10 µM (inactive) |
| C[C@H](CO)N1C[C@H](C)[C@H](CN(C)C(=O)CCC(F)(F)F)OCc2cnnn2CCCC1=O | > 10 µM (inactive) |
| C[C@H](CO)N1C[C@H](C)[C@@H](CN(C)S(=O)(=O)c2ccc(-n3cccn3)cc2)OCc2cn(nn2)CCCC1=O | > 10 µM (inactive) |
| O=S(=O)(NC[C@H]1[C@H](c2ccccc2)[C@H](CO)N1CC1CC1)c1ccccc1 | > 10 µM (inactive) |
| O=C(CC(F)(F)F)N1C[C@H]2[C@@H](c3ccccc31)[C@@H](CO)N2Cc1cccnc1 | > 10 µM (inactive) |
| COCC(=O)N1[C@H](CO)[C@@H]2c3ccccc3NC[C@@H]21 | > 10 µM (inactive) |

| SMILES | AC50 |
| --- | --- |
| COCC(=O)NC[C@@H]1[C@@H](c2ccccc2)[C@H](CO)N1C(=O)c1ccccc1 | > 10 µM (inactive) |
| CC(=O)N1[C@H](CO)[C@H](c2ccccc2)[C@@H]1CN(CC(C)C)C(=O)c1ccccn1 | > 10 µM (inactive) |
| C[C@@H]1CN([C@H](C)CO)C(=O)CCCn2nncc2CO[C@@H]1CN(C)Cc1cccc2c1OCCCO2 | > 10 µM (inactive) |
| CCC(=O)N(C)C[C@H]1[C@@H](c2ccc(-c3cccc(F)c3)cc2)[C@@H](CO)N1C(C)=O | > 10 µM (inactive) |
| O=C(CC(F)(F)F)N1C[C@@H]2[C@H](c3ccccc31)[C@@H](CO)N2Cc1cccnc1 | > 10 µM (inactive) |
| C[C@H](CO)N1C[C@H](C)[C@H](CN(C)S(=O)(=O)c2ccc3c(c2)OCCCO3)OCc2cnnn2CCCC1=O | > 10 µM (inactive) |
| CNC[C@H]1OCc2cn(nn2)CCCC(=O)N([C@H](C)CO)C[C@@H]1C | > 10 µM (inactive) |
| C[C@H](CO)N1C[C@H](C)[C@H](CN(C)C(=O)Nc2ccc3c(c2)OCO3)OCc2cn(nn2)CCCC1=O | > 10 µM (inactive) |
| C[C@H]1CN([C@@H](C)CO)C(=O)CCCn2nncc2CO[C@@H]1CN(C)C(=O)Nc1ccc2c(c1)OCCO2 | > 10 µM (inactive) |
| CC(C)N(C[C@@H]1[C@@H](c2ccccc2)[C@@H](CO)N1S(C)(=O)=O)C(=O)CN(C)C | > 10 µM (inactive) |
| C[C@@H]1CN([C@@H](C)CO)C(=O)CCCn2cc(nn2)CO[C@@H]1CN(C)C(=O)NC1CCCCC1 | > 10 µM (inactive) |
| CCCNC(=O)N1[C@@H]2CN(C(=O)c3ccncc3)c3ccccc3[C@@H]2[C@@H]1CO | > 10 µM (inactive) |
| O=C(Cc1ccccc1)N1C[C@H]2[C@@H](c3ccccc31)[C@H](CO)N2S(=O)(=O)c1ccccc1 | > 10 µM (inactive) |
| C[C@@H]1CN([C@@H](C)CO)C(=O)CCCn2nncc2CO[C@@H]1CN(C)C(=O)NC1CCCC1 | > 10 µM (inactive) |
| COc1ccc(NC(=O)N2C[C@@H]3[C@H](c4ccccc42)[C@@H](CO)N3Cc2ccccn2)cc1 | > 10 µM (inactive) |
| C[C@@H]1CN([C@@H](C)CO)C(=O)CCCn2cc(nn2)CO[C@@H]1CN(C)C(=O)Oc1ccc2ccccc2c1 | > 10 µM (inactive) |
| O=C(NC[C@@H]1[C@H](c2ccccc2)[C@@H](CO)N1C(=O)Cc1ccncc1)C1CCC1 | > 10 µM (inactive) |
| C[C@@H]1CN([C@H](C)CO)C(=O)CCCn2nncc2CO[C@H]1CN(C)Cc1ccc2cccnc2c1 | > 10 µM (inactive) |
| CC(=O)N1[C@H](CO)[C@H]2c3ccccc3N(C(=O)c3ccc(F)cc3)C[C@H]21 | > 10 µM (inactive) |
| CC(=O)N1[C@H](CO)[C@H](c2ccc(C3=CCCCC3)cc2)[C@@H]1CNC(=O)CN(C)C | > 10 µM (inactive) |
| CCN(C[C@H]1[C@H](c2ccccc2)[C@@H](CO)N1CC1CC1)C(=O)c1ccccn1 | > 10 µM (inactive) |
| C[C@H]1CN([C@@H](C)CO)C(=O)CCCn2cc(nn2)CO[C@H]1CN(C)C(=O)NC1CCCCC1 | > 10 µM (inactive) |
| C[C@@H]1CN([C@H](C)CO)C(=O)CCCn2cc(nn2)CO[C@@H]1CN(C)S(=O)(=O)c1cccc(C#N)c1 | > 10 µM (inactive) |
| C[C@H](CO)N1C[C@H](C)[C@H](CN(C)C(=O)Oc2ccc3ccccc3c2)OCc2cn(nn2)CCCC1=O | > 10 µM (inactive) |
